Values after ≈ are worked out from the molar mass of the structure shown. Active and inactive are the calls of the source. The calls are words filed in the database; no cut-off is given here.
How the values were obtained:
THP-1 [1] = assay: Antiinflammatory activity in human THP1 cells assessed as inhibition of LPS-stimulated TNFalpha production at 10 uM incubated for 30 mins prior to LPS-challenge measured 24 hrs post LPS challenge by ELISA; type: functional
THP-1 [2] = assay: Antiinflammatory activity in human THP1 cells assessed as inhibition of LPS-stimulated IL-6 production at 10 uM incubated for 30 mins prior to LPS-challenge measured 24 hrs post LPS-challenge by ELISA; type: functional
Bacillus subtilis [3] = assay: Antibacterial activity against Bacillus subtilis MTCC 441 after 24 hrs by agar well diffusion method; type: functional; conditions: MTCC 441, 24 h
Staphylococcus aureus [4] = assay: Antibacterial activity against Staphylococcus aureus MTCC 96 up to 200 ug/mL after 24 hrs by agar well diffusion method; type: functional, organism-based
Escherichia coli [5] = assay: Antibacterial activity against Escherichia coli MTCC 443 up to 200 ug/mL after 24 hrs by agar well diffusion method; type: functional, organism-based
Salmonella typhimurium [6] = assay: Antibacterial activity against Salmonella typhimurium MTCC 98 up to 200 ug/mL after 24 hrs by agar well diffusion method; type: functional, organism-based; conditions: Salmonella enterica subsp. enterica serovar Typhimurium
Candida albicans [7] = assay: Antifungal activity against Candida albicans MTCC 227 after 2 to 3 days by agar well diffusion method; type: functional
Fusarium solani [8] = assay: Antifungal activity against Fusarium solani MTCC 350 after 2 to 3 days by agar well diffusion method; type: functional
Aspergillus flavus [9] = assay: Antifungal activity against Aspergillus flavus MTCC 277 after 2 to 3 days by agar well diffusion method; type: functional
Aspergillus niger [10] = assay: Antifungal activity against Aspergillus niger MTCC 281 up to 200 ug/mL after 2 to 3 days by agar well diffusion method; type: functional, organism-based
Fusarium solani [11] = assay: Ratio of miconazole MIC to compound MIC for Fusarium solani MTCC 350; type: functional
Aspergillus flavus [12] = assay: Ratio of miconazole MIC to compound MIC for Aspergillus flavus MTCC 277; type: functional
Staphylococcus aureus [13] = assay: Antibacterial activity against Staphylococcus aureus MTCC 96 after 24 hrs by agar well diffusion method; type: functional; conditions: MTCC 96, 24 h
Escherichia coli [14] = assay: Antibacterial activity against Escherichia coli MTCC 443 after 24 hrs by agar well diffusion method; type: functional; conditions: MTCC 443, 24 h
Salmonella typhimurium [15] = assay: Antibacterial activity against Salmonella typhimurium MTCC 98 after 24 hrs by agar well diffusion method; type: functional, Salmonella enterica subsp. enterica serovar Typhimurium; conditions: Salmonella enterica, MTCC 98, 24 h
Aspergillus niger [16] = assay: Antifungal activity against Aspergillus niger MTCC 281 after 2 to 3 days by agar well diffusion method; type: functional
Bacillus subtilis [17] = assay: Antibacterial activity against Bacillus subtilis MTCC 441 up to 200 ug/mL after 24 hrs by agar well diffusion method; type: functional, organism-based
Candida albicans [18] = assay: Antifungal activity against Candida albicans MTCC 227 up to 200 ug/mL after 2 to 3 days by agar well diffusion method; type: functional, organism-based
Fusarium solani [19] = assay: Antifungal activity against Fusarium solani MTCC 350 up to 200 ug/mL after 2 to 3 days by agar well diffusion method; type: functional, organism-based
Aspergillus flavus [20] = assay: Antifungal activity against Aspergillus flavus MTCC 277 up to 200 ug/mL after 2 to 3 days by agar well diffusion method; type: functional, organism-based
THP-1 [21] = assay: Antiinflammatory activity in human THP1 cells assessed as inhibition of LPS-stimulated TNFalpha production at 1 uM incubated for 30 mins prior to LPS-challenge measured 24 hrs post LPS-challenge by ELISA; type: functional
THP-1 [22] = assay: Antiinflammatory activity in human THP1 cells assessed as inhibition of LPS-stimulated IL-6 production at 1 uM incubated for 30 mins prior to LPS-challenge measured 24 hrs post LPS-challenge by ELISA; type: functional
Candida albicans [23] = assay: Ratio of miconazole MIC to compound MIC for Candida albicans MTCC 227; type: functional
Staphylococcus aureus [24] = assay: Ratio of ciprofloxacin MIC to compound MIC for Staphylococcus aureus MTCC 96; type: functional
Bacillus subtilis [25] = assay: Ratio of ciprofloxacin MIC to compound MIC for Bacillus subtilis MTCC 441; type: functional
Escherichia coli [26] = assay: Ratio of ciprofloxacin MIC to compound MIC for Escherichia coli MTCC 443; type: functional
Salmonella typhimurium [27] = assay: Ratio of ciprofloxacin MIC to compound MIC for Salmonella typhimurium MTCC 98; type: functional, Salmonella enterica subsp. enterica serovar Typhimurium
Aspergillus niger [28] = assay: Ratio of miconazole MIC to compound MIC for Aspergillus niger MTCC 281; type: functional

With `COc1ccc(C2=NN(C(C)=O)C(c3ccc(NC(=S)Nc4ccc(Cl)cc4)cc3)C2)cc1OC` (stereo not drawn) the inhibition at 10 µM (THP-1 [1]) was 68%, the inhibition at 10 µM (THP-1 [2]) was 76% and the MIC (Bacillus subtilis [3]) was 90 µg/mL (≈ 177 µM). For the same compound, the Activity (Staphylococcus aureus [4]) was “inactive”, the Activity (Escherichia coli [5]) was “inactive” and the Activity (Salmonella typhimurium [6]) was “inactive”. The MIC (Candida albicans [7]) was 90 µg/mL (≈ 177 µM), the MIC (Fusarium solani [8]) was 90 µg/mL (≈ 177 µM) and the MIC (Aspergillus flavus [9]) was 90 µg/mL (≈ 177 µM). The Activity (Aspergillus niger [10]) was “inactive”.

`COc1ccc(C2=NN(C(C)=O)C(c3ccc(NS(=O)(=O)c4ccc(C(F)(F)F)cc4)cc3)C2)cc1OC` (stereo not drawn) showed a Ratio (Fusarium solani [11]) of 1.5, a Ratio (Aspergillus flavus [12]) of 2 and an inhibition at 10 µM (THP-1 [1]) of 0%. For the same compound, the inhibition at 10 µM (THP-1 [2]) was 0%, the MIC (Staphylococcus aureus [13]) was 70 µg/mL (≈ 128 µM) and the MIC (Bacillus subtilis [3]) was 55 µg/mL (≈ 100 µM). It also gave an MIC (Escherichia coli [14]) of 35 µg/mL (≈ 63.9 µM), an MIC (Salmonella typhimurium [15]) of 25 µg/mL (≈ 45.7 µM) and an MIC (Candida albicans [7]) of 35 µg/mL (≈ 63.9 µM). The MIC (Aspergillus niger [16]) was 20 µg/mL (≈ 36.5 µM), the MIC (Fusarium solani [8]) was 10 µg/mL (≈ 18.3 µM) and the MIC (Aspergillus flavus [9]) was 10 µg/mL (≈ 18.3 µM).

`COc1ccc(C2=NN(C(C)=O)C(c3ccc(NC(=S)Nc4cccc(C(F)(F)F)c4)cc3)C2)cc1OC` (stereo not drawn) was tested, and the inhibition at 10 µM (THP-1 [1]) was 0%, the inhibition at 10 µM (THP-1 [2]) was 8% and the Activity (Staphylococcus aureus [4]) was “inactive”. The Activity (Bacillus subtilis [17]) was “inactive”, the Activity (Escherichia coli [5]) was “inactive” and the Activity (Salmonella typhimurium [6]) was “inactive”. For the same compound, the Activity (Candida albicans [18]) was “inactive”, the Activity (Aspergillus niger [10]) was “inactive” and the Activity (Fusarium solani [19]) was “inactive”. The Activity (Aspergillus flavus [20]) was “inactive”.

For `C[C@@H]1C[C@H]2[C@@H]3CCC4=CC(=O)C=C[C@]4(C)[C@@]3(F)[C@@H](O)C[C@]2(C)[C@@]1(O)C(=O)CO` [DEXAMETHASONE], the inhibition at 1 µM (THP-1 [21]) was 76% and the inhibition at 1 µM (THP-1 [22]) was 84%.

For `COc1ccc(C2=NN(C(C)=O)C(c3ccc(NC(=O)Nc4ccc(C(F)(F)F)cc4)cc3)C2)cc1OC` (stereo not drawn), the Ratio (Candida albicans [23]) was 1.3, the Ratio (Aspergillus flavus [12]) was 1.3 and the inhibition at 10 µM (THP-1 [1]) was 3%. It also gave an inhibition at 10 µM (THP-1 [2]) of 21%, an MIC (Staphylococcus aureus [13]) of 25 µg/mL (≈ 47.5 µM) and an MIC (Bacillus subtilis [3]) of 25 µg/mL (≈ 47.5 µM). For the same compound, the MIC (Escherichia coli [14]) was 15 µg/mL (≈ 28.5 µM), the MIC (Salmonella typhimurium [15]) was 40 µg/mL (≈ 76 µM) and the MIC (Candida albicans [7]) was 15 µg/mL (≈ 28.5 µM). The MIC (Aspergillus niger [16]) was 25 µg/mL (≈ 47.5 µM), the MIC (Fusarium solani [8]) was 15 µg/mL (≈ 28.5 µM) and the MIC (Aspergillus flavus [9]) was 15 µg/mL (≈ 28.5 µM).

Compound `COc1ccc(C2=NN(C(C)=O)C(c3ccc(NS(=O)(=O)c4ccc(C(F)(F)F)cc4Cl)cc3)C2)cc1OC` (stereo not drawn) has a Ratio (Staphylococcus aureus [24]) of 1.3, a Ratio (Bacillus subtilis [25]) of 1.5 and a Ratio (Escherichia coli [26]) of 1.5. For the same compound, the Ratio (Salmonella typhimurium [27]) was 1.3, the Ratio (Fusarium solani [11]) was 1.3 and the Ratio (Aspergillus flavus [12]) was 1.5. The inhibition at 10 µM (THP-1 [1]) was 38%, the inhibition at 10 µM (THP-1 [2]) was 55% and the MIC (Staphylococcus aureus [13]) was 15 µg/mL (≈ 25.8 µM). It also gave an MIC (Bacillus subtilis [3]) of 10 µg/mL (≈ 17.2 µM), an MIC (Escherichia coli [14]) of 10 µg/mL (≈ 17.2 µM) and an MIC (Salmonella typhimurium [15]) of 15 µg/mL (≈ 25.8 µM). The MIC (Candida albicans [7]) was 40 µg/mL (≈ 68.7 µM), the MIC (Aspergillus niger [16]) was 15 µg/mL (≈ 25.8 µM) and the MIC (Fusarium solani [8]) was 10 µg/mL (≈ 17.2 µM). For the same compound, the MIC (Aspergillus flavus [9]) was 15 µg/mL (≈ 25.8 µM).

`COc1ccc(C2=NN(C(C)=O)C(c3ccc(N)cc3)C2)cc1OC` (stereo not drawn) gave an inhibition at 10 µM (THP-1 [1]) of 0%, an inhibition at 10 µM (THP-1 [2]) of 0% and an MIC (Escherichia coli [14]) of 90 µg/mL (≈ 265 µM). For the same compound, the Activity (Staphylococcus aureus [4]) was “inactive”, the Activity (Bacillus subtilis [17]) was “inactive” and the Activity (Salmonella typhimurium [6]) was “inactive”. The Activity (Candida albicans [18]) was “inactive”, the Activity (Aspergillus niger [10]) was “inactive” and the Activity (Fusarium solani [19]) was “inactive”. The Activity (Aspergillus flavus [20]) was “inactive”.

`COc1ccc(C2=NN(C(C)=O)C(c3ccc(NS(=O)(=O)c4ccc(C(F)(F)F)cc4Br)cc3)C2)cc1OC` (stereo not drawn) was tested, and the Ratio (Staphylococcus aureus [24]) was 2, the Ratio (Escherichia coli [26]) was 1.5 and the Ratio (Salmonella typhimurium [27]) was 2. It also gave a Ratio (Aspergillus niger [28]) of 1.5, a Ratio (Fusarium solani [11]) of 1.5 and a Ratio (Aspergillus flavus [12]) of 2. It also gave an inhibition at 10 µM (THP-1 [1]) of 0%, an inhibition at 10 µM (THP-1 [2]) of 8% and an MIC (Staphylococcus aureus [13]) of 10 µg/mL (≈ 16 µM). The MIC (Bacillus subtilis [3]) was 15 µg/mL (≈ 23.9 µM), the MIC (Escherichia coli [14]) was 10 µg/mL (≈ 16 µM) and the MIC (Salmonella typhimurium [15]) was 10 µg/mL (≈ 16 µM). For the same compound, the MIC (Candida albicans [7]) was 20 µg/mL (≈ 31.9 µM), the MIC (Aspergillus niger [16]) was 10 µg/mL (≈ 16 µM) and the MIC (Fusarium solani [8]) was 10 µg/mL (≈ 16 µM). It also gave an MIC (Aspergillus flavus [9]) of 10 µg/mL (≈ 16 µM).

In the case of `COc1ccc(C2=NN(C(C)=O)C(c3ccc(NC(=S)Nc4ccc(C)cc4)cc3)C2)cc1OC` (stereo not drawn), the inhibition at 10 µM (THP-1 [1]) is reported as 0%, the inhibition at 10 µM (THP-1 [2]) is reported as 3% and the Activity (Staphylococcus aureus [4]) is reported as “inactive”. The Activity (Bacillus subtilis [17]) was “inactive”, the Activity (Escherichia coli [5]) was “inactive” and the Activity (Salmonella typhimurium [6]) was “inactive”. The Activity (Candida albicans [18]) was “inactive”, the Activity (Aspergillus niger [10]) was “inactive” and the Activity (Fusarium solani [19]) was “inactive”. For the same compound, the Activity (Aspergillus flavus [20]) was “inactive”.

For `COc1ccc(C2=NN(C(C)=O)C(c3ccc(NC(=O)Nc4ccc(C)c(C)c4)cc3)C2)cc1OC` (stereo not drawn), the inhibition at 10 µM (THP-1 [1]) was 18%, the inhibition at 10 µM (THP-1 [2]) was 30% and the Activity (Staphylococcus aureus [4]) was “inactive”. For the same compound, the Activity (Bacillus subtilis [17]) was “inactive”, the Activity (Escherichia coli [5]) was “inactive” and the Activity (Salmonella typhimurium [6]) was “inactive”. The MIC (Candida albicans [7]) was 90 µg/mL (≈ 185 µM), the MIC (Fusarium solani [8]) was 90 µg/mL (≈ 185 µM) and the MIC (Aspergillus flavus [9]) was 90 µg/mL (≈ 185 µM). The Activity (Aspergillus niger [10]) was “inactive”.

— ChEMBL document CHEMBL2157914, “Synthesis, anti-inflammatory and antimicrobial evaluation of novel 1-acetyl-3,5-diaryl-4,5-dihydro (1H) pyrazole derivatives bearing urea, thiourea and sulfonamide moieties” (2012)
